One may read the IC50 as the concentration needed to halve the response being measured.

SMILES strings stand for the structures.

The text below walks through data of BindingDB's records for doi:10.1021/acs.jmedchem.8b01201 (Kezar Life Sciences, 2018).

Experiment [1] concerns the target T1, Proteasome subunit beta type-1 (Mus musculus, UniProt O09061).
T1 sequence (O09061 whole entry): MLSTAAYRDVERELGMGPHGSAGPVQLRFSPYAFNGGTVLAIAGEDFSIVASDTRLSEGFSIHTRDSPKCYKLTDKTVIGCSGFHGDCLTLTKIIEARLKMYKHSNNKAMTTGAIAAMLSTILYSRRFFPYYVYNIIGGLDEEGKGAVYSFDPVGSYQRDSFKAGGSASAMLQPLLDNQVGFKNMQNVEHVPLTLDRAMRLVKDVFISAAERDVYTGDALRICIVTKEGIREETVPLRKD
As to the kind of experiment: Inhibition of 20S proteosome beta 1 in mouse A20 cells by ELISA. For orientation: An ELISA detects its analyte on a solid surface through an enzyme-linked reagent.

The nature of experiment [2]: Inhibition of 20S proteosome beta 1 in human MOLT4 cells by ELISA.
Experiment [3] concerns the target Proteasome subunit beta type-2 (Homo sapiens, UniProt P49721). As to the kind of experiment: Inhibition of 20S proteosome beta 2 in human MOLT4 cells by ELISA.
Experiment [4] in a line: Inhibition of 20S proteosome beta 1 in mouse A20 cells by ELISA.
Experiment [5] is described as follows: Inhibition of 20S proteosome beta 2 in human MOLT4 cells by ELISA.
Experiment [6] has as its target T2, Proteasome subunit beta type-1 (Homo sapiens, UniProt P20618).
T2 sequence (P20618 whole entry): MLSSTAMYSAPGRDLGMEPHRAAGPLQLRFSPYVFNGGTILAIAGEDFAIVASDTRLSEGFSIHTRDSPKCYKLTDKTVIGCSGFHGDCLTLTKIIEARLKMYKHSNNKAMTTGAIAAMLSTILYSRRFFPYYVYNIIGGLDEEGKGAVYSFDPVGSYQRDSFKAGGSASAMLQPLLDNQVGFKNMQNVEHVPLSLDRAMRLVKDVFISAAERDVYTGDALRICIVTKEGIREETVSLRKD
Briefly: Inhibition of 20S proteosome beta 1 in human MOLT4 cells by ELISA.

Sequence of Proteasome subunit beta type-2 (P49721 whole entry): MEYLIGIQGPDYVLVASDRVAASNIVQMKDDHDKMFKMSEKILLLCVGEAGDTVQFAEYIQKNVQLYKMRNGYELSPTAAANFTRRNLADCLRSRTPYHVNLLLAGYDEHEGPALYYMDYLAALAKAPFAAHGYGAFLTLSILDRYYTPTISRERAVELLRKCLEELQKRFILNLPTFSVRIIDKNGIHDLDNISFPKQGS

Regarding `CC(C)C[C@H](NC(=O)CN1CCCCCC1)C(=O)N[C@@H](Cc1ccccc1)C(=O)N[C@@H](Cc1ccccc1)C(=O)[C@@]1(C)CO1`, the IC50 in experiment [1] and in experiment [2] was more than 250 µM each time.
`Cc1ccc(CC[C@H](NC(=O)[C@H](Cc2ccccc2)NC(=O)[C@H](CC(C)C)NC(=O)CN2CCCCCC2)C(=O)[C@@]2(C)CO2)cc1`: the half-maximal inhibitory concentration (IC50) was 0.413 µM in experiment [3], more than 25 µM in experiment [1] and more than 25 µM in experiment [2].
Consider `COc1ccc([C@@H](O)[C@H](NC(=O)[C@H](C)NC(=O)CN2CCOCC2)C(=O)N[C@@H](CC2=CCCC2)C(=O)[C@@]2(C)CO2)cc1` [Kzr-616], for which the figures for the concentration for half-maximal inhibition (IC50) in experiment [4] and in experiment [2] were more than 25 µM and more than 10.6 µM, respectively.
On to `COc1ccc(C[C@H](NC(=O)[C@@H](C)NC(=O)[C@H]2CC[C@H](O)CC2)C(=O)N[C@@H](CC2=CCCC2)C(=O)[C@@]2(C)CO2)cc1`, for which the IC50 in experiment [2] and in experiment [5] was more than 25 µM in each case.
`COc1ccc(C[C@H](NC(=O)[C@@H](C)NC(=O)[C@H]2CC[C@H](O)CC2)C(=O)N[C@@H](Cc2ccccc2)C(=O)[C@@]2(C)CO2)cc1`: the half-maximal inhibitory concentration (IC50) in experiment [6] and in experiment [3] was more than 25 µM in each case.
